Patent publication US7989495B2, “Compositions and methods for inhibiting NF-κB mediated tumorigenicity and adhesion dependent survival of cancer cells” (University of Utah Research Foundation, priority 2002, dated 2011)

Legend:
[1] = tested on: HT-29 colon cancer cell line; assay: Cell proliferation assay (crystal violet, 590 nm); format: cell-based; settings: 10 μM, cultured 8 days
Description: DLD-1, HCT-116, and HT-29 colon cancer cell lines were obtained from the ATCC collection and were cultured in Dulbecco's Modification of Eagle's Medium supplemented with 10% fetal bovine serum, glutamine, penicillin, and streptomycin. 293 cells stably transfected with COX-2 (293-COX-2) under the control of a ponasterone sensitive promoter were cultured in Dulbecco's Modification of Eagle's Medium supplemented with 10% fetal bovine serum, 400 μg/ml of zeocin, 400 μg/ml of G418, glutamine, penicillin, and streptomycin. For induction of COX-2 protein expression, 293-COX-2 cells were cultured for 48 hours in media supplemented with 1 μg/ml of ponasterone. All cells were cultured at 37° C. in a humidified incubator with a 5% CO2 atmosphere.
For the cell proliferation assay, cells were dispersed and plated at 40,000 cells/well in 96-well dishes. At various days in culture, the cells were gently washed twice with 100 μl/well of ice-cold blocking buffer (1% radioimmunoassay grade BSA in PBS) and twice with 100 μl/well of ice-cold PBS. The cells were fixed for 10 min in 100% ice-cold methanol (100 μl/well), then allowed to air-dry. The cells were stained with 100μl/well of 0.1% crystal violet in H2O for 10 minutes, then washed gently four times with dd H20 and four times with PBS. The plates were then air-dried completely. The stained cells were then solubilized in 1% sodium deoxycholate, and the plates read at 590 nm in a spectrophotometer. The absorption at 590 nm is proportional to the number of attached cells.

[2] = tested on: transiently suspended Caco-2 cells; assay: Apoptosis (annexin V) of transiently suspended cells allowed to readhere; format: cell-based; settings: treated
Description: Single cell suspensions were plated at 100,000 cells per well in 24-well plates in media containing DMSO, BAY 11-7082, BAY 11-7085, or MG-132 for 8-24 hours in an incubator. Alternatively, DMSO, BAY 11-7082, BAY 11-7085, or MG-132 were added to cells that were confluent and adherent for several days. The nonadherent cells were aspirated off with the media and spun for 3 minutes at 2,000 rpm in 15 ml polypropylene tubes. The adherent cells were washed twice with PBS, dispersed in trypsin, and spun down for 3 minutes at 2,000 rpm in 15 ml polypropylene tubes. The nonadherent and adherent cells were resuspended in 1× binding buffer (10 mM HEPES/NaOH, pH 7.4, 140 mM NaCl, and 2.5 mM CaCl2) to a final concentration of 10^6 cells/ml. […] 400 μl of binding buffer was added to each tube and the cells were analyzed by flow cytometry immediately. The percent of apoptosis was determined as the percent of annexin V-positive, propidium iodide-negative cells of the total cells counted.
Since trypsin can activate protease-activated receptor-2 in colon cancer cell lines, which then results in increased cell proliferation, (Darmoul et al., 2001) NF-κB activation was determined in adherent and confluent DLD-1, HCT-116, Caco-2 and HT-29 cells that were removed from plastic dishes by trypsin or scraping. […]

SMILES: CC(C)(C)c1ccc(S(=O)(=O)/C=C/C#N)cc1 [BAY 11-7085, (2E)-3-[4-(tertiarybutylphenyl)sulfonyl]-2-propenenitrile]
- inhibition of cell proliferation [1]: greatly inhibited cell proliferation
- BAY 11-7085-induced apoptosis during readhesion [2]: showed a moderate increase
